Blank lines part the entries; values can stand above or below the molecule they belong to.
Legend:
Mus musculus [1] = test: Drug level in mouse treated with (S)-ethyl 8-(2-amino-6-((R)-1-(5-chloro-3'-sulfamoylbiphenyl-2-yl)-2,2,2-trifluoroethoxy)pyrimidin-4-yl)-2,8-diazaspiro[4.5]decane-3-carboxylate at 10 to 50 mg/kg, po administered as single dose; assay type: ADME, organism-based; conditions: in vivo
[2] = target: T1, Tryptophan 5-hydroxylase 1 (Homo sapiens, UniProt P17752)
T1 sequence (P17752 whole entry): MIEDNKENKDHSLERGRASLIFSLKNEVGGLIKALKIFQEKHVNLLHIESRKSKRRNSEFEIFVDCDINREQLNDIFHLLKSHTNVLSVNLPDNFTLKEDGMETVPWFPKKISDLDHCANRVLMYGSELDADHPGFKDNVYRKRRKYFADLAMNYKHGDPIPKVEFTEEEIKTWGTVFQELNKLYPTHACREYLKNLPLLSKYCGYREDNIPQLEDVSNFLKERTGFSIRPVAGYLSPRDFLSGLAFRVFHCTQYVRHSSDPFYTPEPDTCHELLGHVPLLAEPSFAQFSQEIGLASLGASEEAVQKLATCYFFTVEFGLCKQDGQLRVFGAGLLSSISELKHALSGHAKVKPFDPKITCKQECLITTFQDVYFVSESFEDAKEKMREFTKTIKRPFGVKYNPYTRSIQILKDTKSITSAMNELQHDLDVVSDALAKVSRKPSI
Description: Inhibition of TPH1 (unknown origin)

Mus musculus [3] = test: In vivo inhibition of TPH1 in mouse assessed as reduction in 5-HT level in intestinal mucosa at 50 mg/kg, po administered daily as single dose relative to control; assay type: functional
Mus musculus [4] = test: In vivo inhibition of TPH1 in mouse assessed as reduction in 5-HT level in intestinal mucosa at 10 mg/kg, po administered daily as single dose relative to control; assay type: functional
Mus musculus [5] = test: Prodrug activation in mouse assessed as (S)-8-(2-amino-6-((R)-1-(5-chloro-3'-(trifluoromethyl)biphenyl-2-yl)-2,2,2-trifluoroethoxy)pyrimidin-4-yl)-2,8-diazaspiro[4.5]decane-3-carboxylic acid formation at 10 to 50 mg/kg, po administered as single dose; assay type: organism-based; conditions: in vivo
Mus musculus [6] = test: Prodrug activation in mouse assessed as (S)-8-(2-amino-6-((R)-1-(5-chloro-3'-(methylsulfonyl)biphenyl-2-yl)-2,2,2-trifluoroethoxy)pyrimidin-4-yl)-2,8-diazaspiro[4.5]decane-3-carboxylic acid formation at 10 to 50 mg/kg, po administered as single dose; assay type: organism-based; conditions: in vivo
Mus musculus [7] = test: Drug level in mouse treated with (S)-ethyl 8-(2-amino-6-((R)-1-(5-chloro-3'-(methylsulfonyl)biphenyl-2-yl)-2,2,2-trifluoroethoxy)pyrimidin-4-yl)-2,8-diazaspiro[4.5]decane-3-carboxylate at 10 to 50 mg/kg, po administered as single dose; assay type: ADME, organism-based; conditions: in vivo
Mus musculus [8] = test: Prodrug activation in mouse assessed as (S)-8-(2-amino-6-((R)-1-(3'-tert-butyl-5-chlorobiphenyl-2-yl)-2,2,2-trifluoroethoxy)pyrimidin-4-yl)-2,8-diazaspiro[4.5]decane-3-carboxylic acid formation at 10 to 50 mg/kg, po administered as single dose; assay type: organism-based; conditions: in vivo
Mus musculus [9] = test: Prodrug activation in mouse assessed as (S)-8-(2-amino-6-((R)-1-(5-chloro-3'-fluorobiphenyl-2-yl)-2,2,2-trifluoroethoxy)pyrimidin-4-yl)-2,8-diazaspiro[4.5]decane-3-carboxylic acid formation at 10 to 50 mg/kg, po administered as single dose; assay type: organism-based; conditions: in vivo
Rattus norvegicus [10] = test: Clearance in rat at 1 mg/kg, iv relative to hepatic blood flow; assay type: ADME, organism-based; conditions: in vivo
Rattus norvegicus [11] = test: Volume of distribution at steady state in rat at 1 mg/kg, iv; assay type: ADME, organism-based; conditions: in vivo
Rattus norvegicus [12] = test: Half life in rat at 1 mg/kg, iv; assay type: ADME, organism-based; conditions: in vivo
[13] = target: T2, Tryptophan 5-hydroxylase 2 (Homo sapiens, UniProt Q8IWU9); test: Inhibition of TPH2 (unknown origin)
T2 sequence (Q8IWU9 whole entry): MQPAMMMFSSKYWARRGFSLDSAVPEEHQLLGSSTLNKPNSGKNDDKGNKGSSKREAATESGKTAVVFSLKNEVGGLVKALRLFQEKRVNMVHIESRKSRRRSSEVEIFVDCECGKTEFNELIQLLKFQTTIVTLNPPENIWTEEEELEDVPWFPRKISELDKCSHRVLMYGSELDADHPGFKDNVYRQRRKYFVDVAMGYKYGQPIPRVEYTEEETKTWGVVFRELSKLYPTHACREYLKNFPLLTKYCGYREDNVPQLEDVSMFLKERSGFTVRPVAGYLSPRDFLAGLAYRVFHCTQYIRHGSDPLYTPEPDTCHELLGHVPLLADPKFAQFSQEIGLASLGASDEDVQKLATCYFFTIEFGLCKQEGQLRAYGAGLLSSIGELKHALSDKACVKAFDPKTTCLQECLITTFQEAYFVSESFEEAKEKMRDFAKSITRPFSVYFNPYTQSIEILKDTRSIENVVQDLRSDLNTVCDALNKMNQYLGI

[14] = Clearance in beagle dog at 1 mg/kg, iv; assay type: ADME, organism-based, Canis lupus familiaris; conditions: in vivo
Canis familiaris = test: Clearance in beagle dog at 1 mg/kg, iv relative to hepatic blood flow; assay type: ADME, organism-based, Canis lupus familiaris; conditions: in vivo
[15] = Half life in beagle dog at 1 mg/kg, iv; assay type: ADME, organism-based, Canis lupus familiaris; conditions: beagle, in vivo
[16] = Volume of distribution at steady state in beagle dog at 1 mg/kg, iv; assay type: ADME, organism-based, Canis lupus familiaris; conditions: beagle, in vivo, read-out: Vdss
Mus musculus [17] = test: Drug level in mouse treated with (S)-ethyl 8-(2-amino-6-((R)-1-(5-chlorobiphenyl-2-yl)-2,2,2-trifluoroethoxy)pyrimidin-4-yl)-2,8-diazaspiro[4.5]decane-3-carboxylate at 10 to 50 mg/kg, po administered as single dose; assay type: ADME, organism-based; conditions: in vivo

Drug metabolism (Mus musculus [5]): Metabolite_Detected
Compound: CCOC(=O)[C@@H]1CC2(CCN(c3cc(O[C@H](c4ccc(Cl)cc4-c4cccc(C(F)(F)F)c4)C(F)(F)F)nc(N)n3)CC2)CN1
inhibition in vivo at 50 mg/kg (Mus musculus [3]): 64%
inhibition in vivo at 10 mg/kg (Mus musculus [4]): 31%

Drug metabolism (Mus musculus [9]): Metabolite_Detected
Compound: CCOC(=O)[C@@H]1CC2(CCN(c3cc(O[C@H](c4ccc(Cl)cc4-c4cccc(F)c4)C(F)(F)F)nc(N)n3)CC2)CN1
inhibition in vivo at 50 mg/kg (Mus musculus [3]): 61%
inhibition in vivo at 10 mg/kg (Mus musculus [4]): 38%

Continued, molecule first:

Compound: Nc1nc(O[C@H](c2ccc(Cl)cc2-c2cccc(S(N)(=O)=O)c2)C(F)(F)F)cc(N2CCC3(CC2)CN[C@H](C(=O)O)C3)n1
Drug metabolism (Mus musculus [1]): Metabolite_Detected
IC50 [2]: 11 nM

Compound: CCOC(=O)[C@@H]1CC2(CCN(c3cc(O[C@H](c4ccc(Cl)cc4-c4cccc(S(C)(=O)=O)c4)C(F)(F)F)nc(N)n3)CC2)CN1
inhibition in vivo at 50 mg/kg (Mus musculus [3]): 38%
Drug metabolism (Mus musculus [6]): Metabolite_Detected

Compound: CS(=O)(=O)c1cccc(-c2cc(Cl)ccc2[C@@H](Oc2cc(N3CCC4(CC3)CN[C@H](C(=O)O)C4)nc(N)n2)C(F)(F)F)c1
Drug metabolism (Mus musculus [7]): Metabolite_Detected
IC50 [2]: 14 nM

Compound: CCOC(=O)[C@@H]1CC2(CCN(c3cc(O[C@H](c4ccc(Cl)cc4-c4cccc(C(C)(C)C)c4)C(F)(F)F)nc(N)n3)CC2)CN1
inhibition in vivo at 50 mg/kg (Mus musculus [3]): 59%
inhibition in vivo at 10 mg/kg (Mus musculus [4]): 33%
Drug metabolism (Mus musculus [8]): Metabolite_Detected

Compound: Nc1nc(O[C@H](c2ccc(Cl)cc2-c2ccccc2)C(F)(F)F)cc(N2CCC3(CC2)CN[C@H](C(=O)O)C3)n1 [RODATRISTAT]
CL (Rattus norvegicus [10]): 1.2%
Vdss (Rattus norvegicus [11]): 7.8 L/kg
t1/2 (Rattus norvegicus [12]): 12.1 h
IC50 [13]: 7 nM
clearance [14]: 1.2 mL/min/kg
CL (Canis familiaris): 4%
half-life [15]: 4.8 h
Vd [16]: 0.24 L/kg
Drug metabolism (Mus musculus [17]): Metabolite_Detected
IC50 [2]: 33 nM
